3 molecules from ChEMBL document CHEMBL1131629, “4-Benzylamino-1-chloro-6-substituted phthalazines: synthesis and inhibitory activity toward phosphodiesterase 5” (J Med Chem, 1998) can be followed below.

The test is filed under the species Sus scrofa. The experiment in a line: Vasorelaxation effect in porcine coronary arteries precontracted with PGF2-alpha. It counts as functional.
One may read the EC50 as the concentration giving half of the maximal effect. A lower EC50 goes with an effect from little substance. As for `COc1ccc(CNc2nnc(Cl)c3ccc(C#N)cc23)cc1Cl`, the midpoint of the response, the EC50, lay at 150 nM.

The molecule `O=C(O)C1CCN(c2nc(NCc3ccc4c(c3)OCO4)c3cc(Cl)ccc3n2)CC1` had an EC50 of 980 nM.

Molecule `COc1ccc(CNc2nnc(Cl)c3ccc([N+](=O)[O-])cc23)cc1Cl` gave an EC50 of 160 nM.
